# Experimental data taken from patent US20100130549A1, “PSYCHOTROPIC COMPOUNDS, COMPOSITIONS AND METHODS OF USE” (priority 2007, published 2010).
# Legend:
# BALB/c mice [1] = assay: Open field test
# BALB/c mice [2] = assay: Rotor rod test (motor activity); type: in vivo; conditions: 10 mg/kg p.o., 90 min after administration; vs controls
# Method: The test was performed 90 min after oral administration of the compounds. […] The rotor rod test involves placing the mouse on an elevated rotating bar. In this test, the mouse is placed on the bar such that it is facing the direction opposite to the rotation of the rod. The time lag to fall is determined.
# BALBc male mice = assay: Hot plate test; type: in vivo; conditions: 10 mg/kg orally (sertraline equimolar); vs vehicle treated control
# Text: The hot-plate test is widely used to measure pain sensation. The latency in response to heat of mice and rats feet is based on the method described by Eddy et al., Synthetic analgesics. II. […] The method is based on placing an animal on heated (52-56 C) surface and measuring the time to response (raising paw, licking of the paw, jumping or running.
# The animals were followed for 6 hr.
# ICR male mice = assay: Subchronic ip administration (toxicity); type: in vivo
# Text: […]. Except for this local irritation no other toxicity was noted.
# […]. […] Except of these local irritations no other toxicity was noted.
# [3] = 10 mg/kg (equimolar) ip 1 hr prior, p<0.001 vs controls
# [4] = 10 and 30 mg/kg ip ×3/week for 2 weeks, sertraline equimolar
structure (smiles),measurement,setting,value
OCCCC#Cc1cc2c(cc1OC[C@@H]1CNCC[C@H]1c1ccc(F)cc1)OCO2 [If],sedative effect accompanying the anxiolytic activity,BALB/c mice [1]; orally 90 min prior,not accompanied by a sedative effect
"CN[C@H]1CC[C@@H](c2ccc(Cl)c(Cl)c2)c2ccccc21 [sertraline, reference compound]",muscle strength and basic motor activity,BALB/c mice [2],did not modify
same,total time spent in the center (areas 2+3),BALB/c mice [1]; 10 mg/kg (equimolar) ip 1 hr prior,significantly increase
same,frequency to the center,"BALB/c mice [1]; 10 mg/kg (equimolar) ip 1 hr prior, controls 1.23",1.27
same,distance moved,BALB/c mice [1]; [3],significantly increase
same,velocity,BALB/c mice [1]; [3],significantly increase
same,latency to heat sensation,BALBc male mice,significantly increase
same,body weight gain versus controls,ICR male mice; [4],no difference
same,chemistry blood picture,ICR male mice; [4],did not show a significant change
same,"histopathology of heart, spleen, liver and kidney","ICR male mice; high dose of 30 mg/kg ip, subchronic, capsule of the abdominal organs",minimal to mild irritation
